“Also recorded” adds a separate entry of the source. Where two headings read alike, the source gives them in different places.
Columns and labels:
diabetic mice [1] = test: Oral glucose tolerance test (OGTT) after single dose in diabetic mice; format: in vivo; details: Table 6; relative potency, single dose; B.G. = blood glucose
Method: (§1) The Biochemical and Research Ethical Committee of King Abulaziz University (Jeddah, Saudi Arabia), in accordance with the NIH guidelines, approved all procedures, and the animals received human care during the experimental period. Experiments were carried out using adult male Swiss albino mice (SWR), of 8-9 weeks age and 30-35 g weight. Animals were purchased from the animal house of the King Fahed Medical Research center (KFMRC), Jeddah, Saudi Arabia. Mice were kept at a constant temperature of 24-25° C. and were subjected to a controlled 12 h light-dark cycle; they had free access to water and pelleted diet ad libitum.
(§2) Nicotinamide (210 mg/kg b.w.), dissolved in saline, was injected intraperitoneally 15 min before the intraperitoneal injection of Streptozotocin (STZ) (Sigma, 180 mg/kg b.w.), which was freshly prepared in citrate buffer (pH 4.5). Control animals received both vehicles. During the experimental period, animals' food intake and body weight gain were monitored once a week.
Oral glucose tolerance tests were performed in 14 h overnight fasted diabetic mice that were pretreated with a single oral dose of the tested compounds. […] The drugs were suspended in carboxymethyl cellulose (CMC)-Na (1% in distilled water) and the dosing volume was adjusted at 10 mL/kg body weight of the mouse. Then an oral glucose load was administered (2 g/kg) 2 h after drug treatment. Blood glucose levels were determined using the Accu-check Go® (Roche Diagnostics, Michigan, USA). Samples were collected just before drug administration (fasting blood glucose), then at 2 h after drug treatment (immediately before glucose loading). Then blood sample collection was continued at 20, 40, 60 and 120 min intervals after glucose loading.
Animals were distributed between three categories of groups. Each group is composed of six animals (n=6) […] as follows:
Category 1: One group of animals were 14 h overnight-fasted normoglycemic mice and vehicle-treated (1% CMC-Na) at a dose of 10 ml/kg.
Category 2: Another group of animals was overnight fasted diabetic mice received the vehicle (1% CMC-Na) at a dosing volume of 10 ml/kg and served as a negative control.
Category 4: Animals of these groups were overnight fasted diabetic mice received the tested compounds at a dose of 50 mg/kg in 1% CMC (volume of 10 ml/kg).

diabetic mice [2] = test: Oral glucose tolerance test (OGTT) after multiple doses (6 days) in diabetic mice; format: in vivo; details: Table 6; relative potency, 6 days; B.G. = blood glucose
Method: as §1, §2
(§3) On the same groups that received the single dose treatment, the tested compounds were given daily by oral gavage for six consecutive days. On day 6, the overnight fasted diabetic mice were pretreated with the 6th oral dose of the tested compounds. Two hours later, an oral glucose was loaded (2 g/kg/10 ml b.w.). Blood glucose levels were determined using the Accu-check Go®. Samples were collected just before drug administration (Fasting Blood glucose), then 2 h after drug treatment and before glucose administration. Samples collection was continued at 20, 40, 60 and 120 min intervals after glucose loading.

DPP-IV enzyme = target: T1, DPP-IV enzyme (Homo sapiens, UniProt P27487); test: In vitro DPP-IV inhibition assay (Biovision kit, fluorescence); format: biochemical; details: for DPP-4 enzyme inhibition activity, in words: SAR discussion; for % Inhibition (values marked *: inhibition at 1000 nM): compound at 1000 nM; for % Inhibition @ 100 nM / inhibition at 0.1 µM: compound at 100 nM
T1 construct: purchased Biovision (Milpitas, Calif., USA)
Method: DPP-IV inhibition assay was conducted using a kit purchased from Biovision (Milpitas, Calif., USA). Briefly, DPP-IV enzyme was diluted with Tris buffer and pipetted 50 μl into glass mini-cells. […] Finally a volume of 25 μl of DPP-IV substrate was added into each tube. The fluorescence generated from hydrolysis of the substrate was read at Ex/Em=360/460 nm using Modulus® single tube multimode reader (Promega, USA). Baseline fluorescence was recorded before incubation (R1) and 20 min after incubation (R2).
The standard DPP-IV inhibitor drug sitagliptin employed as positive control. […] Sigmoidal concentration-response curves for DPP-IV % inhibition versus log concentration were plotted using Graphpad prism software, version 5.00 (GraphPad Software, Inc. La Jolla, Calif., USA).

diabetic mice [3] = test: Fasting blood glucose of diabetic mice treated daily for 6 consecutive days; format: in vivo; details: 50 mg/kg oral daily
Method: as §1, §2, §3
The oral glucose tolerance test (OGTT) was performed over six days on diabetic mice. The glucose level was monitored daily (Table 3). The results were analyzed for activities after a single dose (Table 4) and after the 6th dose of the drug (Table 5).

[4] = Table 2, head prints no unit, nM per Table 6, read-out: IC50
[5] = read-out: enzymatic inhibition value / inhibitory activity (IC50)

T1 sequence (P27487 whole entry, species assumed): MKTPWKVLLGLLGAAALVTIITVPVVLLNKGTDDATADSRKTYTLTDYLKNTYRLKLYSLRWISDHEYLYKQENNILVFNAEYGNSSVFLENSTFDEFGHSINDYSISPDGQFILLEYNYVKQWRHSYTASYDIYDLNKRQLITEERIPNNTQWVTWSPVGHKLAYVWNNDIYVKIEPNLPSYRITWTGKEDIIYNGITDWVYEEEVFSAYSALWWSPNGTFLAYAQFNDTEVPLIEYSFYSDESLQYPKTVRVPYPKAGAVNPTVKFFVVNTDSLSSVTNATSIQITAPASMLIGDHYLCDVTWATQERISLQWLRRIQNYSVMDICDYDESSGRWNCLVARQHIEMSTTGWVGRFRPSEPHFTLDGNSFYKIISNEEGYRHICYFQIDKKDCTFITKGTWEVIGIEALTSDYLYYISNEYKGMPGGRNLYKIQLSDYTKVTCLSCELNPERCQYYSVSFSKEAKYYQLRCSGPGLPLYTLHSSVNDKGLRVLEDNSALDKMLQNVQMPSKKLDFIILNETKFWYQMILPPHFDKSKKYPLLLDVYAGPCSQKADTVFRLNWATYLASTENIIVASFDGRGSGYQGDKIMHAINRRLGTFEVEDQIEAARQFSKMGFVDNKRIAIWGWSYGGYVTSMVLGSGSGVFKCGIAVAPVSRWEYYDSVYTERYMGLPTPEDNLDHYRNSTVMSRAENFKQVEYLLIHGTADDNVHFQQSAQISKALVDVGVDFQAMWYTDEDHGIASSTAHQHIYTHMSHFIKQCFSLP

SMILES | R.P. to Vildagliptin (Single Dose) (diabetic mice [1]) | R.P. to Vildagliptin (6 Days) (diabetic mice [2]) | DPP-4 enzyme inhibition activity, in words (DPP-IV enzyme) | % Inhibition (values marked *: inhibition at 1000 nM) (DPP-IV enzyme) | IC50 (DPP-IV enzyme; [4]) [nM] | IC50 (DPP-IV enzyme; Table 6, read-out: IC50) [nM] | % Inhibition @ 100 nM (DPP-IV enzyme) [%] | other results
O=C(CNC12CC3CC(CC(O)(C3)C1)C2)Nc1ccc(O)cc1 [Compound 60] | 0.67 | 0.67 | very weak activity | 20.11* % |  |  |  | 
N#Cc1ccccc1NC(=O)CNC12CC3CC(CC(O)(C3)C1)C2 [Compound 19] | 0.23 | 0.87 | exception to nitrile performance | 99.06* % | 267 | > 100 |  | 
O=C(CNC12CC3CC(CC(O)(C3)C1)C2)NCc1ccc(F)cc1 [Compound 54] | Increased B.G. | Increased B.G. |  |  | 87.1 | 87.1 | 57.12 | 
COc1ccccc1NC(=O)CNC12CC3CC(CC(O)(C3)C1)C2 [Compound 5] | 0.66 | 0.26 | weakened the enzyme inhibition activities | 93.48* % | 94.1 | 94.1 |  | 
N#Cc1cccc(NC(=O)CNC23CC4CC(CC(O)(C4)C2)C3)c1 [Compound 26, N-(3-cyanophenyl)-2-[(3-hydroxyadamantan-1-yl)amino]acetamide] | 0.32 | 1.3 | high affinity towards the enzyme |  | 0.58 | 0.58 |  | DPP-4 enzyme inhibition activity, in words (DPP-IV enzyme; listed as GLP-26): high level of potency both in vitro and in vivo; inhibition at 0.1 µM (DPP-IV enzyme): 83.1%; IC50 (DPP-IV enzyme; [5]): < 1 nM
Cc1cccc(NC(=O)CNC23CC4CC(CC(O)(C4)C2)C3)c1 [Compound 30] |  |  | much weaker enzyme inhibition activities | 70.92* % |  |  |  | 
N#C[C@@H]1CCCN1C(=O)CNC12CC3CC(CC(O)(C3)C1)C2 [Vildagliptin, reference compound] |  | 1 |  |  |  |  |  | Fasting blood glucose level, Day 1 (diabetic mice [3]; Day 1): 205.20 ± mg/dL; Fasting blood glucose level, Day 2 (diabetic mice [3]; Day 2): 119.40 ± mg/dL; Fasting blood glucose level, Day 3 (diabetic mice [3]; Day 3): 169.20 ± mg/dL; Fasting blood glucose level, Day 4 (diabetic mice [3]; Day 4): 197.80 mg/dL; Fasting blood glucose level, Day 5 (diabetic mice [3]; Day 5): 244.60 mg/dL; Fasting blood glucose level, Day 6 (diabetic mice [3]; Day 6): 165.00 mg/dL
O=C(CNC12CC3CC(CC(O)(C3)C1)C2)Nc1ccccc1C(F)(F)F [Compound 14] | 0.12 | Increased B.G. | generally weak |  | 41.3 | 41.3 | 84.81 | 
O=C(CNC12CC3CC(CC(O)(C3)C1)C2)Nc1cccc(O)c1 [Compound 17] | 0.26 | 1.42 | very weak activity |  | 212 | > 100 | 44.44 | 
O=C(CNC12CC3CC(CC(O)(C3)C1)C2)NCCc1ccccc1 [Compound 59] | 0.52 | 0.83 |  | 67.04* % |  |  |  | 
O=C(CNC12CC3CC(CC(C3)C1)C2)Nc1cc(Cl)ccn1 [Compound 117] |  |  | high DPP-4 inhibition; also recorded: best functionality in enzyme inhibition activity |  | 5.42 |  | 83.14 | 
Cc1ccccc1NC(=O)CNC12CC3CC(CC(O)(C3)C1)C2 [Compound 2] | 0.42 | 1.2 |  |  | 10.1 | 10.1 | 86.82 | IC50 (DPP-IV enzyme; [5]): 10.3 nM
O=C(CNC12CC3CC(CC(O)(C3)C1)C2)Nc1ccccc1F [Compound 27] |  |  | generally weak | 67.04* % |  |  |  | 
O=C(CNC12CC3CC(CC(O)(C3)C1)C2)Nc1cccc(F)c1 [Compound 31] | 0.37 | 0.85 | generally weak |  | 62.3 | 62.3 | 56.23 | 
O=C(CNC12CC3CC(CC(O)(C3)C1)C2)NCc1ccccc1 [Compound 53] |  |  |  |  | 7.41 |  |  | inhibition at 0.1 µM (DPP-IV enzyme): 86.8%
Cc1ccc(NC(=O)CNC23CC4CC(CC(O)(C4)C2)C3)cc1 [Compound 3] |  |  | much weaker enzyme inhibition activities |  |  |  | 28.38 | 
O=C(CNC12CC3CC(CC(O)(C3)C1)C2)Nc1ccc(Cl)cc1 [Compound 43] | 0.26 | 1.39 | weak inhibitors at high concentration |  | 102 | > 100 | 51.64 | 
Cc1cccc(C)c1NC(=O)CNC12CC3CC(CC(C3)C1)C2 [Compound 120] |  |  | much weaker enzyme inhibition activities | 62.84* % |  |  |  | 
